Legend:
[1] = tested on: primary human hepatocytes (PHH); design: method as in PMID 35594709; conditions: 100 µM; cited from earlier work
CYP3A4 = CYP3A4 (Homo sapiens, UniProt P08684); test: cell-based P450-Glo CYP3A4 activity assay in PHHs; format: in vitro ADME; design: human hepatic microsomes (Gibco, Biocenter, Szeged, Hungary); tissue Gibco (Biocenter, Szeged, Hungary); host or cells: human liver microsomes; conditions: 100 µM, 24 h
Method: To investigate the effects of inhibitor MI-2415 on CYP3A4 activities, a P450-Glo CYP450 assay (Promega, Madison, WI, USA) was used. […] This luminescent method involves adding a cell-permeable Luciferin-IPA at 3 µM, which was used in 300 µL phenol-red free Williams’ Medium E in each well in the CYP3A4 assay with an incubation time of 1 h. The luminescence activity of the product in the presence of the luciferin detection reagent was proportional to the CYP activity. For the microsomal CYP3A4 assay of inhibitors MI-1851 and MI-2415 at 25, 50, and 100 µM (n = 3), BioVision CYP assays (BioVision, Inc., Kampenhout, Belgium) were used according to the manufacturer’s instructions. The protein content of human hepatic microsomes (Gibco, Biocenter, Szeged, Hungary) was determined by the bicinchoninic acid protein assay kit (Pierce BCA kit, Thermo Fisher Scientific, Waltham, MA, USA) and a 100 µg/well protein was used in each study. […] A Victor X2 2030 fluorescence spectrometer (Perkin Elmer, Waltham, MA, USA) was used to detect the fluorescence intensities of the microsomal CYP3A4 function at wavelengths of λex/em = 535/587 nm and it was also applied to detect the luminescence signals of the cell-based CYP3A4 activity assay.

[2] = target: T1, Human serum albumin (HSA) (Homo sapiens, UniProt P02768); test: fluorescence quenching of human serum albumin; format: binding; conditions: HSA 2 μM, ligand 1-10 μM, PBS pH 7.4, λex 295 nm
T1 construct: purchased Merck (Darmstadt, Germany) A1653
T1 sequence (P02768 25-609): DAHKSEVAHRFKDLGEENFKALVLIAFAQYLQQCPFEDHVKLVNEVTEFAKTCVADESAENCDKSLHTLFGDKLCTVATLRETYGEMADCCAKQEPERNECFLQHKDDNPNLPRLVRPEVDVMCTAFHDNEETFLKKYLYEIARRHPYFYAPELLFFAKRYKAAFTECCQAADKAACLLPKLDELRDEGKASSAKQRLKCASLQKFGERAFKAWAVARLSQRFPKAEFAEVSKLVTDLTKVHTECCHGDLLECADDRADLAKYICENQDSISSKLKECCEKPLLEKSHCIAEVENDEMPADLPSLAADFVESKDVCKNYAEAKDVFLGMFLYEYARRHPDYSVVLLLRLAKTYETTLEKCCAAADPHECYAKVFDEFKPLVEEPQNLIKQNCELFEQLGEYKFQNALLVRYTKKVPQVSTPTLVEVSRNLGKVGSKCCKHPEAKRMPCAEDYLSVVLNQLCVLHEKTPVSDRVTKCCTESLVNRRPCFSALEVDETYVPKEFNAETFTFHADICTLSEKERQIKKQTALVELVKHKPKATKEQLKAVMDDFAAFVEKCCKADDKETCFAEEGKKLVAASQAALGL
Method: Human serum albumin (HSA) (product code: A1653) and α1-acid glycoprotein (AGP) (product code: G9885) were purchased from Merck (Darmstadt, Germany) and used as received. Fluorescence emission spectra were recorded using a Hitachi F-4500 fluorometer (Tokyo, Japan), while absorption spectra were collected by employing a Hitachi U-3900 UV–Vis spectrophotometer (Tokyo, Japan). Before the evaluation of fluorescence data, the inner-filter effects of MI-1851 and MI-2415 were corrected based on the following equation [23, 24]:(1) Icor=Iobs×e^(Aex+Aem)/2 where Icor and Iobs are the corrected and observed emission intensities, respectively; and Aex and Aem are the absorbance of the MI compounds tested at the excitation and emission wavelengths used, respectively.
To examine the potential interaction of inhibitor MI-2415 with HSA, increasing levels of the ligand (final concentrations: 0, 1, 2, 3, 4, 7, and 10 μM) were added to a standard amount of the protein (2 μM) in PBS (pH 7.4), and then the emission spectra were recorded (λex = 295 nm, λem = 340 nm). Furthermore, the quenching effects of inhibitors MI-1851 and MI-2415 (both 0, 0.25, 0.5, 1, 1.5, 2, and 2.5 μM) were also tested on the emission signal of AGP (2 μM) in PBS (λex = 285 nm, λem = 337 nm).

[3] = tested on: primary human hepatocytes (PHH); test: CCK-8 cytotoxicity assay in primary human hepatocytes; format: cell-based; conditions: 50 µM and 100 µM, 24 h
Method: (§1) PHHs were purchased from Primacyt Cell Culture Technology GmbH (Schwerin, Germany). Hepatocytes were thawed using hepatocyte recovery medium (Primacyt, Schwerin, Germany) and cells were centrifuged (10 min, 100× g, 20 °C) to remove supernatants. Cells were incubated with 5% FBS-containing plating medium for 6 h, then with FBS-free maintenance medium at 37 °C with 5% CO2 (both media were obtained from Primacyt, Schwerin, Germany) on Matrigel-coated membrane inserts (Costar Transwell-COL PTFE permeable supports, 6.5 mm inserts, 0.4 µm pore size, 24-well plate, Corning Incorporated, Kennebunk, ME, USA) for the CCK-8 and Amplex Red procedures. Maintenance medium without FBS was replaced every 24 h and the cells were incubated.
The possible cytotoxic effects of the inhibitors MI-1851 and MI-2415 (structures provided in Figure 1) in different concentrations on IPEC-J2 and those of inhibitor MI-2415 on PHHs were assessed for 24 h by performing the CCK-8 assay (Dojindo Molecular Technologies, Rockville, MD, USA). […] Following three times washing of the wells with PBS, 10 µL CCK-8 reagent mixed with 100 µL fresh Williams’ Medium E was added and the absorbance values were measured at 450 nm using the SpectraMax iD3 microplate reader (Molecular Devices, San José, CA, USA) after 2 h incubation. […]

[4] = tested on: primary human hepatocytes (PHH); test: DCFH-DA intracellular ROS assay in primary human hepatocytes; format: cell-based; conditions: 50 µM and 100 µM, 24 h
Method: as §1
The ability of inhibitors MI-1851 and MI-2415 to induce oxidative stress (ROS) within IPEC-J2 as well as of compound MI-2415 within PHHs was investigated with 2,7-dichloro-dihydro-fluorescein diacetate (DCFH2-DA). DCFH2-DA is a non-fluorescent compound that can passively diffuse across cell membranes due to its lipophilic nature. […] A Victor X2 2030 (Perkin Elmer, Waltham, MA, USA) was used to determine the fluorescence values of the samples (excitation wavelength: 485 nm, emission wavelength: 535 nm), which are directly proportional to the ROS generation.

CYP3A4, sequence (P08684 whole entry): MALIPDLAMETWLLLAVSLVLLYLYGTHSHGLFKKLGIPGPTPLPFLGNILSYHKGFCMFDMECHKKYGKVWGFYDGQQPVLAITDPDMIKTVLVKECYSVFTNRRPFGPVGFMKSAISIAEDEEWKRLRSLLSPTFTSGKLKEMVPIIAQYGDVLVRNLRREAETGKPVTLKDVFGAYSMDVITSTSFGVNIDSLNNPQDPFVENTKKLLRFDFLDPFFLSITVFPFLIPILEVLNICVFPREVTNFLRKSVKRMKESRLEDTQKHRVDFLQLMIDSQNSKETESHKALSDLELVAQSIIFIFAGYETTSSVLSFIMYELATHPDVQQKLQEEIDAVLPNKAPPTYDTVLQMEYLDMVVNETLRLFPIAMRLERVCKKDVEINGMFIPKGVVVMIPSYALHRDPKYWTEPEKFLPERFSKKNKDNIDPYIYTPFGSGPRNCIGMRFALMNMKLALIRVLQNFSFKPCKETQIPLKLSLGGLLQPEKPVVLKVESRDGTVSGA

Structure (SMILES) | extracellular hydrogen peroxide production in PHHs [1] | CYP3A4 activity in PHHs (CYP3A4) | effect on emission intensity of HSA at 340 nm [2] | cell death in PHHs [3] | intracellular ROS formation in PHHs [4]
CC(C)(C)[C@H](NC(=O)[C@H](CCONC(=N)N)NC(=O)Cc1ccc(CNC(=N)N)cc1)C(=O)N[C@@H](CCONC(=N)N)C(=O)NCc1ccc(C(=N)N)cc1 [MI-1851] | lacking any significant effect |  |  |  | 
CC(C)(C)[C@H](NC(=O)[C@H](CCONC(=N)N)NC(=O)Cc1ccc(CNC(=N)N)cc1)C(=O)N[C@@H](CCONC(=N)N)C(=O)NCc1ccc2c(c1)CN=C2N [MI-2415] |  | significantly reduced | did not influence the emission intensity of HSA | did not lead to significant cell death | did not cause a redox imbalance
